Source: ChEMBL document CHEMBL5038670, “Design, Synthesis, and Biological Evaluation of Apcin-Based CDC20 Inhibitors” (ACS Med Chem Lett, 2022)
Active and inactive are the calls of the source. No cut-off for these calls is given here.

Key:
MDA-MB-231 [1] = experiment: Cytotoxicity against human TNBC MDA-MB-231 cells assessed as cell viability measured after 72 hrs; format: functional, cell-based; details: MDA-MB-231, 72 h
MDA-MB-468 [2] = experiment: Cytotoxicity against human TNBC MDA-MB-468 cells assessed as cell viability measured after 72 hrs; format: functional, cell-based; details: MDA-MB-468, 72 h
MDA-MB-468 [3] = experiment: Upregulation of cyclin B1 level in human TNBC MDA-MB-468 cells at 10 uM measured after 24 hrs by western blot analysis relative to control; format: functional, cell-based
MDA-MB-468 [4] = experiment: Downregulation of cyclin B1 level in human TNBC MDA-MB-468 cells at 30 uM measured after 24 hrs by western blot analysis relative to control; format: functional, cell-based
MDA-MB-468 [5] = experiment: Downregulation of se-curin level in human TNBC MDA-MB-468 cells at 10 uM measured after 24 hrs by western blot analysis relative to control; format: functional, cell-based
MDA-MB-468 [6] = experiment: Downregulation of se-curin level in human TNBC MDA-MB-468 cells at 30 uM measured after 24 hrs by western blot analysis relative to control; format: functional, cell-based
MDA-MB-468 [7] = experiment: Effect on BimEL expression in human TNBC MDA-MB-468 cells at 10 to 30 uM measured after 24 hrs by western blot analysis relative to control; format: functional, cell-based; details: dose 10-30 µM
MDA-MB-468 [8] = experiment: Effect on BimL expression in human TNBC MDA-MB-468 cells at 10 to 30 uM measured after 24 hrs by western blot analysis relative to control; format: functional, cell-based; details: dose 10-30 µM
MDA-MB-468 [9] = experiment: Effect on BimS expression in human TNBC MDA-MB-468 cells at 10 to 30 uM measured after 24 hrs by western blot analysis relative to control; format: functional, cell-based; details: dose 10-30 µM
MDA-MB-468 [10] = experiment: Downregulation of CDC20 level in human TNBC MDA-MB-468 cells at 10 uM measured after 24 hrs by western blot analysis relative to control; format: functional, cell-based
MDA-MB-468 [11] = experiment: Downregulation of CDC20 level in human TNBC MDA-MB-468 cells at 30 uM measured after 24 hrs by western blot analysis relative to control; format: functional, cell-based
MDA-MB-468 [12] = experiment: Antitumor activity against human MDA-MB-468 cells assessed as induction of cell death at 30 uM measured after 24 hour relative to control; format: functional, cell-based
Sus scrofa [13] = species: Sus scrofa; experiment: Induction of porcine brain tubulin polymerization at 10 uM measured for 60 mins by spectrophotometric method relative to control; format: tissue-based
MDA-MB-231 [14] = experiment: Cytotoxicity against human TNBC MDA-MB-231 cells assessed as cell viability at 300 uM measured after 72 hrs relative to control; format: functional; details: for viability at 300 µM: read-out: Activity
MDA-MB-468 [15] = experiment: Cytotoxicity against human TNBC MDA-MB-468 cells assessed as cell viability at 300 uM measured after 72 hrs relative to control; format: functional; details: for viability at 300 µM: read-out: Activity
MDA-MB-468 [16] = experiment: Upregulation of cyclin B1 level in human TNBC MDA-MB-468 cells at 80 uM measured after 24 hrs by western blot analysis relative to control; format: functional, cell-based
Sus scrofa [17] = species: Sus scrofa; experiment: Inhibition of porcine brain tubulin polymerization at 10 uM measured for 60 mins by spectrophotometric method relative to control

| SMILES | IC50 (MDA-MB-231 [1]) | IC50 (MDA-MB-468 [2]) | also measured |
| --- | --- | --- | --- |
| COc1ccc(-c2csc(NC(NC(=O)OCCn3c([N+](=O)[O-])cnc3C)C(F)(F)Cl)n2)cc1 (stereo unspecified) | 63.1 µM | 49.2 µM |  |
| COc1ccc(-c2csc(NC(NC(=O)OCCN3CCOCC3)C(F)(F)Cl)n2)cc1 (stereo unspecified) | 52.6 µM | 47.5 µM |  |
| Cc1sc(NC(NC(=O)OCCn2c([N+](=O)[O-])cnc2C)C(F)(Cl)Cl)nc1-c1ccc(OC(F)(F)F)cc1 (stereo unspecified) | 10.8 µM | 13.2 µM | Activity (MDA-MB-468 [3]): Active; Activity (MDA-MB-468 [4]): Active; Activity (MDA-MB-468 [5]): Active; Activity (MDA-MB-468 [6]): Active; Activity (MDA-MB-468 [7]): Dose-Dependent Effect; Activity (MDA-MB-468 [8]): Dose-Dependent Effect; Activity (MDA-MB-468 [9]): Dose-Dependent Effect; Activity (MDA-MB-468 [10]): inactive; Activity (MDA-MB-468 [11]): Active; Activity (MDA-MB-468 [12]): Active |
| Cc1ncc([N+](=O)[O-])n1CCOC(=O)NC(Nc1nc(-c2ccc(S(C)(=O)=O)cc2)cs1)C(F)(F)Cl (stereo unspecified) | > 300 µM | 103 µM |  |
| CC(=O)O[C@H]1C(=O)[C@@]2(C)[C@H]([C@H](OC(=O)c3ccccc3)[C@]3(O)C[C@H](OC(=O)[C@H](O)[C@@H](NC(=O)c4ccccc4)c4ccccc4)C(C)=C1C3(C)C)[C@]1(OC(C)=O)CO[C@@H]1C[C@@H]2O |  |  | inhibition (Sus scrofa [13]): Active |
| Cc1ncc([N+](=O)[O-])n1CCOC(=O)NC(Nc1nc2ccc(S(C)(=O)=O)cc2s1)C(F)(F)Cl (stereo unspecified) | 230 µM | > 300 µM |  |
| CC(=O)Nc1ccc(-c2csc(NC(NC(=O)OCCn3c([N+](=O)[O-])cnc3C)C(F)(F)Cl)n2)cc1 (stereo unspecified) | 75.7 µM | 66.5 µM |  |
| Cc1ncc([N+](=O)[O-])n1CCOC(=O)NC(Nc1nc(-c2ccc(Cl)cc2Cl)cs1)C(F)(F)Cl (stereo unspecified) | 21.4 µM | 14.4 µM |  |
| COc1ccc(-c2csc(NC(NC(=O)OCCn3c([N+](=O)[O-])cnc3C)C(F)(Cl)Cl)n2)cc1 (stereo unspecified) | 63.5 µM | 39.3 µM |  |
| Cc1ncc([N+](=O)[O-])n1CCOC(=O)NC(N1CCOCC1)C(F)(F)Cl (stereo unspecified) |  |  | Activity (MDA-MB-231 [14]): inactive; Activity (MDA-MB-468 [15]): inactive |
| Cc1ncc([N+](=O)[O-])n1CCOC(=O)NC(Nc1nc(-c2ccc(OC(F)(F)F)cc2)cs1)C(F)(F)Cl (stereo unspecified) | 12 µM | 23.3 µM |  |
| COC(=O)c1sc(NC(NC(=O)OCCn2c([N+](=O)[O-])cnc2C)C(F)(F)Cl)nc1-c1ccccc1 (stereo unspecified) | 42.1 µM | 23.5 µM |  |
| Cc1ncc([N+](=O)[O-])n1CCOC(=O)NC(Nc1nc2ccc([N+](=O)[O-])cc2s1)C(F)(F)Cl (stereo unspecified) | 37.8 µM | 40.1 µM |  |
| Cc1ncc([N+](=O)[O-])n1CCOC(=O)NC(Nc1ncccn1)C(F)(F)Cl (stereo unspecified) |  |  | viability at 300 µM (MDA-MB-231 [14]): 52%; viability at 300 µM (MDA-MB-468 [15]): 40% |
| Cc1ncc([N+](=O)[O-])n1CCOC(=O)NC(Nc1nc2ccccc2[nH]1)C(F)(F)Cl (stereo unspecified) |  |  | viability at 300 µM (MDA-MB-231 [14]): 70%; viability at 300 µM (MDA-MB-468 [15]): 47% |
| COc1ccc(-c2csc(NC(NC(=O)OCCn3c([N+](=O)[O-])cnc3C)C(F)(F)Cl)n2)cc1O (stereo unspecified) | 224 µM | 82.5 µM |  |
| Cc1ncc([N+](=O)[O-])n1CCOC(=O)NC(Nc1ncccn1)C(Cl)(Cl)Cl (stereo unspecified) | 91.4 µM | 53.5 µM | Activity (MDA-MB-468 [16]): Active |
| Cc1ncc([N+](=O)[O-])n1CCOC(=O)NC(Nc1nc(-c2ccc(C#N)c(F)c2)cs1)C(F)(F)Cl (stereo unspecified) | 24.1 µM | 14.4 µM | inhibition (Sus scrofa [17]): inactive |
| Cc1ncc([N+](=O)[O-])n1CCOC(=O)NC(Nc1nc2ccc(C#N)cc2s1)C(F)(F)Cl (stereo unspecified) | 80.8 µM | 116 µM |  |
| Cc1sc(NC(NC(=O)OCCn2c([N+](=O)[O-])cnc2C)C(F)(F)Cl)nc1-c1ccc(Cl)cc1 (stereo unspecified) | 12.6 µM | 10.1 µM | inhibition (Sus scrofa [17]): inactive |
| Cc1sc(NC(NC(=O)OCCN2CCOCC2)C(F)(F)Cl)nc1-c1ccc(OC(F)(F)F)cc1 (stereo unspecified) | 14.2 µM | 32.6 µM |  |
| Cc1ncc([N+](=O)[O-])n1CCOC(=O)NC(Nc1nc2c(F)cc(F)cc2s1)C(F)(F)Cl (stereo unspecified) | 106 µM | 101 µM |  |
| Cc1ncc([N+](=O)[O-])n1CCOC(=O)NC(Nc1nc2ccc(F)cc2s1)C(F)(F)Cl (stereo unspecified) | 80.7 µM | 73.7 µM |  |
| Cc1ncc([N+](=O)[O-])n1CCOC(=O)NC(Nc1c(Cl)nc(N)nc1Cl)C(F)(F)Cl (stereo unspecified) |  |  | Activity (MDA-MB-231 [14]): inactive; viability at 300 µM (MDA-MB-468 [15]): 52% |
| Cc1ncc([N+](=O)[O-])n1CCOC(=O)NC(Nc1ncc(C#N)cn1)C(F)(F)Cl (stereo unspecified) |  |  | Activity (MDA-MB-468 [15]): inactive |
| Cc1ncc([N+](=O)[O-])n1CCOC(=O)NC(Nc1nc2ccccc2s1)C(F)(F)Cl (stereo unspecified) |  |  | viability at 300 µM (MDA-MB-231 [14]): 66%; viability at 300 µM (MDA-MB-468 [15]): 21% |
| COC(=O)c1ccc(-c2csc(NC(NC(=O)OCCn3c([N+](=O)[O-])cnc3C)C(F)(F)Cl)n2)cc1 (stereo unspecified) | 34.5 µM | 18.7 µM |  |
| Cc1ncc([N+](=O)[O-])n1CCOC(=O)NC(Nc1nc2ccc(OC(F)(F)F)cc2s1)C(F)(F)Cl (stereo unspecified) | 21.2 µM | 11.2 µM | inhibition (Sus scrofa [17]): inactive |
| Cc1ncc([N+](=O)[O-])n1CCOC(=O)NC(Nc1nc2ccc(Cl)cc2s1)C(F)(F)Cl (stereo unspecified) | 44.5 µM | 42.2 µM |  |
| Cc1sc(NC(NC(=O)OCCn2c([N+](=O)[O-])cnc2C)C(F)(F)Cl)nc1-c1ccc(OC(F)(F)F)cc1 (stereo unspecified) | 12 µM | 11.4 µM | inhibition (Sus scrofa [17]): inactive; Activity (MDA-MB-468 [4]): Active; Activity (MDA-MB-468 [6]): Active; Activity (MDA-MB-468 [7]): Dose-Dependent Effect; Activity (MDA-MB-468 [8]): Dose-Dependent Effect; Activity (MDA-MB-468 [9]): Dose-Dependent Effect; Activity (MDA-MB-468 [10]): Active; Activity (MDA-MB-468 [11]): Active; Activity (MDA-MB-468 [12]): Active |
